Columns and labels:
Format in all cases: in vivo
M-CSF (CSF1) = assay: Acute LPS-induced sepsis in C57BL/6 mice: M-CSF (CSF1) cytokine detection assay; details: LPS-challenged mice, plasma at 6.5 h, unpaired t-test vs vehicle
From the text: FIG. 24 is a graph showing the results of an M-CSF (CSF1) cytokine detection assay in samples collected from mouse subjects after administration of compounds of the present disclosure. M-CSF causes hematopoietic stem cells to differentiate into macrophages.
(§1) The primary objective of this study was to collect plasma samples of lipopolysaccharide (LPS) challenged C57BL/6 mice after dose of test compounds to provide a cytokine profile as impacted by prophylactic treatments. This study models acute sepsis, which is a systemic inflammatory syndrome initiated by Gram-negative and Gram-positive bacteria and fungi which infect the lungs, abdomen, bloodstream, and renal or genitourinary tracts. Sepsis patients ultimately die of multiorgan failure which is caused by extensive tissue hypo-oxygenation due to ongoing microvascular leakage, disseminated intravascular coagulation, compromised energy production, and metabolic alterations. Sepsis is characterized by an early systemic inflammatory response phase featuring symptoms, such as tachycardia, fever, hyperventilation, and activation of the complement and coagulation cascades. However, it is now appreciated that a compensatory anti-inflammatory response phase follows, characterized by neuroendocrine-mediated immunosuppression. Since these processes are the result of interaction between cells of inflammation and organs, investigation of the treatment of this syndrome requires the use of intact animal models. The use of ten mice per group allows useful statistical modelling of the results.
(§2) For the data shown in Table 2A, 103 mice (female, 18-22 gram, C57BL/6) were purchased from ENVIGO. The mice were housed in 20 cages of 5 mice per cage with 1 cage of 3 mice as extra. The cages had filter tops and autoclaved bedding, and the animals were placed in quarantine with daily inspection. The treatment groups are detailed in Table 2A below. 10 mice were included in each group. The mice were dosed by oral gavage (PO) at 10 ml/kg as per the table below. MC=methyl cellulose.
as §2, with “2B, 185” for “2A, 103”, “37” for “20”, “cage.” for “cage with 1 cage of 3 mice as extra.”, “2B” for “2A”, “(P0)” for “(PO)”
(§3) At T=0 h, the mice were dosed with one of the test compounds as described in the above table.
(§4) At T=0.5 h, the mice were injected IP with 1.5 mg/kg […] (Sigma).
(§5) At T=6.5 h, all mice were anesthetized and exsanguinated into pre-chilled EDTA-treated tubes. The blood was processed to plasma which was stored in labeled 0.5 polypropylene snap-cap tubes (0.5 mL Eppendorf Safe-Lock Tubes (Fisher Scientific) at −80° C.
(§6) Preparation of vehicle: 1.0 gram of methyl cellulose (Sigma) was dissolved in 200 mL of water (USP purified) to make a solution of 0.5% methyl cellulose in water. Preparation of LPS solution: 6 mg of LPS (from Escherichia Coli 055:B5, Cat #L2880, Sigma Lot #057m4013) was dissolved in 20 ml of saline to give a LPS solution of 0.3 mg/ml. All mice were injected with 5 ml/kg (1.5 mg/kg) at the scheduled time by intraperitoneal injection.
(§7) A 32-plex cytokine panel was obtained from Eve Technologies. Each cytokine was assessed based against a 7 point curve range in duplicate. The average of the two replicate analyses was used for statistics. Unpaired t-tests were performed using Excel™ contrasting vehicle against each treatment group. One star indicates P<0.05. Two stars indicates P<0.01. Three stars indicates P<0.001. Four stars indicates P<0.0001. Most, but not all, statistically significant results are indicated with star(s).

IL-12(p70) = assay: Acute LPS-induced sepsis in C57BL/6 mice: IL-12(p70) cytokine detection assay; details: LPS-challenged mice, plasma at 6.5 h, unpaired t-test vs vehicle
From the text: FIG. 16 is a graph showing the results of an IL-12(p70) cytokine detection assay in samples collected from mouse subjects after administration of compounds of the present disclosure.
as §1
as §2, with “The mice were dosed by oral gavage (PO) at 10 ml/kg as per the table below.” left out
as §2, with “2B, 185” for “2A, 103”, “37” for “20”, “cage.” for “cage with 1 cage of 3 mice as extra.”, “2B” for “2A”, “(P0)” for “(PO)”
as §3, §4, §5, §6
A 32-plex cytokine panel was obtained from Eve Technologies. Each cytokine was assessed based against a 7 point curve range in duplicate. The average of the two replicate analyses was used for statistics. Unpaired t-tests were performed using Excel™ contrasting vehicle against each treatment group. One star indicates P<0.05. […]

IL-13 = assay: Acute LPS-induced sepsis in C57BL/6 mice: IL-13 cytokine detection assay; details: LPS-challenged mice, plasma at 6.5 h, unpaired t-test vs vehicle
From the text: FIG. 17 is a graph showing the results of an IL-13 cytokine detection assay in samples collected from mouse subjects after administration of compounds of the present disclosure.
as §1, §2
as §2, with “2B, 185” for “2A, 103”, “37” for “20”, “cage.” for “cage with 1 cage of 3 mice as extra.”, “2B” for “2A”, “(P0)” for “(PO)”
as §3, §4, §5, §6
A 32-plex cytokine panel was obtained from Eve Technologies. Each cytokine was assessed based against a 7 point curve range in duplicate. The average of the two replicate analyses was used for statistics. […]

KC = assay: Acute LPS-induced sepsis in C57BL/6 mice: KC cytokine detection assay; details: LPS-challenged mice, plasma at 6.5 h, unpaired t-test vs vehicle
From the text: FIG. 20 is a graph showing the results of a KC cytokine detection assay in samples collected from mouse subjects after administration of compounds of the present disclosure.
as §1, §2
as §2, with “2B, 185” for “2A, 103”, “37” for “20”, “cage.” for “cage with 1 cage of 3 mice as extra.”, “2B” for “2A”, “(P0)” for “(PO)”
as §3, §4, §5, §6, §7

IL-10 = assay: Acute LPS-induced sepsis in C57BL/6 mice: IL-10 cytokine detection assay; details: LPS-challenged mice, plasma at 6.5 h, unpaired t-test vs vehicle
MCP-1(CCL2) = assay: Acute LPS-induced sepsis in C57BL/6 mice: MCP-1(CCL2) cytokine detection assay; details: 200 mpk PO; LPS-challenged mice, plasma at 6.5 h; unpaired t-test vs vehicle
IFNγ = assay: Acute LPS-induced sepsis in C57BL/6 mice: IFNγ cytokine detection assay; details: 75 mpk PO; LPS-challenged mice, plasma at 6.5 h; unpaired t-test vs vehicle
IL-17 = assay: Acute LPS-induced sepsis in C57BL/6 mice: IL-17 cytokine detection assay; details: 75 mpk PO; LPS-challenged mice, plasma at 6.5 h; unpaired t-test vs vehicle
From the text: FIG. 19 is a graph showing the results of an IL-17 cytokine detection assay in samples collected from mouse subjects after administration of compounds of the present disclosure.
as §1
as §2, with “The mice were dosed by oral gavage (PO) at 10 ml/kg as per the table below.” left out
as §2, with “2B, 185” for “2A, 103”, “37” for “20”, “cage.” for “cage with 1 cage of 3 mice as extra.”, “2B” for “2A”, “(P0)” for “(PO)”
as §3, §4
(§8) At T=6.5 h, all mice were anesthetized and exsanguinated into pre-chilled EDTA-treated tubes. […]
(§9) A 32-plex cytokine panel was obtained from Eve Technologies. Each cytokine was assessed based against a 7 point curve range in duplicate. […]

[1] = test system: leukemia inhibitory factor (LIF); assay: Acute LPS-induced sepsis in C57BL/6 mice: leukemia inhibitory factor (LIF) cytokine detection assay; details: 75 mpk PO; LPS-challenged mice, plasma at 6.5 h; unpaired t-test vs vehicle
From the text: FIG. 21 is a graph showing the results of a leukemia inhibitory factor (LIF) cytokine detection assay in samples collected from mouse subjects after administration of compounds of the present disclosure. LIF is an interleukin 6 class cytokine that affects cell growth by inhibiting differentiation.
as §1, §2
as §2, with “2B, 185” for “2A, 103”, “37” for “20”, “cage.” for “cage with 1 cage of 3 mice as extra.”, “2B” for “2A”, “(P0)” for “(PO)”
as §3, §4, §5, §6, §9

MIP2(CXCL2) = assay: Acute LPS-induced sepsis in C57BL/6 mice: MIP2(CXCL2) cytokine detection assay; details: 75 mpk PO; LPS-challenged mice, plasma at 6.5 h; unpaired t-test vs vehicle
From the text: FIG. 27 is a graph showing the results of a MIP2(CXCL2) cytokine detection assay in samples collected from mouse subjects after administration of compounds of the present disclosure.
as §1
as §2, with “The mice were dosed by oral gavage (PO) at 10 ml/kg as per the table below.” left out
as §2, with “2B, 185” for “2A, 103”, “37” for “20”, “cage.” for “cage with 1 cage of 3 mice as extra.”, “2B” for “2A”, “(P0)” for “(PO)”
as §3, §4, §8, §9

IL-3 = assay: Acute LPS-induced sepsis in C57BL/6 mice: IL-3 cytokine detection assay; details: 75 mpk PO; LPS-challenged mice, plasma at 6.5 h; unpaired t-test vs vehicle

## CC(C)(O)c1ncc(C(F)(F)F)cc1N [Compound I-24, 2-(3-Amino-5-(trifluoromethyl)pyridin-2-yl) propan-2-ol]
M-CSF (CSF1); 200 mpk PO
  M-CSF: significant cytokine change vs. vehicle: * (One star indicates P<0.05)

## CC(C)(O)c1cc(Cl)c(Cl)cc1N [Compound I-28, 2-(2-Amino-4,5-dichlorophenyl) propan-2-ol]
IL-12(p70); 200 mpk PO
  IL-12 (p70): significant cytokine change vs. vehicle: * (One star indicates P<0.05)
IL-13; 200 mpk PO
  IL-13: significant cytokine change vs. vehicle: * (One star indicates P<0.05)
KC; 200 mpk PO
  KC: significant cytokine change vs. vehicle: *** (Three stars indicates P<0.001)
IL-10; 200 mpk PO
  IL-10: significant cytokine change vs. vehicle: * (One star indicates P<0.05)
MCP-1(CCL2)
  MCP-1: significant cytokine change vs. vehicle: * (One star indicates P<0.05)

## Cc1cnc(C(C)(C)O)c(N)c1 [Compound I-32, 2-(3-Amino-5-methylpyridin-2-yl) propan-2-ol]
IL-12(p70); 75 mpk PO
  IL-12 (p70): significant cytokine change vs. vehicle: * (One star indicates P<0.05)
IL-13; 75 mpk PO
  IL-13: significant cytokine change vs. vehicle: *** (Three stars indicates P<0.001)
M-CSF (CSF1); 75 mpk PO
  M-CSF: significant cytokine change vs. vehicle: **** (Four stars indicates P<0.0001)
IFNγ
  IFNy: significant cytokine change vs. vehicle: **** (Four stars indicates P<0.0001)
IL-17
  IL-17: significant cytokine change vs. vehicle: * (One star indicates P<0.05)
IL-10; 75 mpk PO
  IL-10: significant cytokine change vs. vehicle: * (One star indicates P<0.05)
[1]
  LIF: significant cytokine change vs. vehicle: **** (Four stars indicates P<0.0001)

## CC(C)(O)c1cc2occc2cc1N [Compound I-22, 2-(5-Aminobenzofuran-6-yl) propan-2-ol]
M-CSF (CSF1); 100 mpk PO
  M-CSF: significant cytokine change vs. vehicle: ** (Two stars indicates P<0.01)

## CC(O)(c1ccc(C(F)(F)F)cc1N)C(F)(F)F (centres unmarked) [Compound I-33, 2-(2-Amino-4-(trifluoromethyl)phenyl)-1,1,1-trifluoropropan-2-ol]
MIP2(CXCL2)
  MIP-2: significant cytokine change vs. vehicle: ** (Two stars indicates P<0.01)
IL-12(p70); 75 mpk PO
  IL-12 (p70): significant cytokine change vs. vehicle: * (One star indicates P<0.05)
IL-13; 75 mpk PO
  IL-13: significant cytokine change vs. vehicle: ** (Two stars indicates P<0.01)
KC; 75 mpk PO
  KC: significant cytokine change vs. vehicle: ** (Two stars indicates P<0.01)
IL-3
  IL-3: significant cytokine change vs. vehicle: ** (Two stars indicates P<0.01)
[1]
  LIF: significant cytokine change vs. vehicle: **** (Four stars indicates P<0.0001)

— patent publication US20240383870A1, “HETEROCYCLIC ALDEHYDE TRAPPING COMPOUNDS AND USES THEREOF” (Aldeyra Therapeutics, Inc., priority 2021, published 2024)
